ChEMBL document CHEMBL5614367, “Hydroxamic acid hybrids: Histone deacetylase inhibitors with anticancer therapeutic potency” (Eur J Med Chem, 2023)

Columns and labels:
HCT-116 [1] = assay: Antiproliferative activity against human HCT-116 cells measured after 72 hrs by MTT assay; type: functional, cell-based; settings: HCT-116, 72 h
MCF7 [2] = assay: Antiproliferative activity against human MCF7 cells measured after 72 hrs by MTT assay; type: functional, cell-based; settings: MCF7, 72 h
A549 [3] = assay: Antiproliferative activity against human A549 cells measured after 72 hrs by MTT assay; type: functional, cell-based; settings: A549, 72 h
A549 [4] = assay: Antiproliferative activity against human A549 cells
HepG2 [5] = assay: Antiproliferative activity against human HepG2 cells; type: functional, cell-based
HT-29 = assay: Antiproliferative activity against human HT-29 cells; type: functional, cell-based
HCT-116 [6] = assay: cells; settings: Homo sapiens
MV4-11 = assay: Cytotoxicity against human MV4-11 cells assessed as reduction in cell growth incubated for 24 hrs by MTT assay; type: functional, cell-based; settings: MV4-11, 24 h
Daudi = assay: Cytotoxicity against human Daudi cells assessed as reduction in cell growth incubated for 24 hrs by MTT assay; type: functional, cell-based
A549 [7] = assay: Cytotoxicity against human A549 cells assessed as reduction in cell growth incubated for 24 hrs by MTT assay; type: functional, cell-based; settings: A549, 24 h
MCF7 [8] = assay: Cytotoxicity against human MCF7 cells assessed as reduction in cell growth incubated for 24 hrs by MTT assay; type: functional, cell-based; settings: MCF7, 24 h
Histone deacetylase 8 = target: T1, Histone deacetylase 8 (Homo sapiens, UniProt Q9BY41); assay: Inhibition of HDAC8 (unknown origin) using R-H-K(Ac)-K(Ac)-AFC as fluoregenic substrate by fluorescence based analysis
T1 sequence (Q9BY41 whole entry): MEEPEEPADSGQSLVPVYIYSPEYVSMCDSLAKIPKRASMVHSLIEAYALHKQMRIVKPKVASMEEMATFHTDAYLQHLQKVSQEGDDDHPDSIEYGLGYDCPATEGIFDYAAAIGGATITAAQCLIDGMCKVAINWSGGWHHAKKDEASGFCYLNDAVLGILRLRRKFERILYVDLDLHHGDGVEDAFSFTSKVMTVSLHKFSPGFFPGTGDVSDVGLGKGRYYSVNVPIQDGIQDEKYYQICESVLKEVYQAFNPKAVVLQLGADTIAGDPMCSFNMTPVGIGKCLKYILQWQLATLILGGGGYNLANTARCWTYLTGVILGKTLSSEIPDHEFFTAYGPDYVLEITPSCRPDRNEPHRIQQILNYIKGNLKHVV

Histone deacetylase = assay: Inhibition of HDAC (unknown origin); type: protein assay, Homo sapiens
[9] = target: T2, Protein deacetylase HDAC6 (Homo sapiens, UniProt Q9UBN7); assay: Inhibition of HDAC6 (unknown origin)
T2 sequence (Q9UBN7 whole entry): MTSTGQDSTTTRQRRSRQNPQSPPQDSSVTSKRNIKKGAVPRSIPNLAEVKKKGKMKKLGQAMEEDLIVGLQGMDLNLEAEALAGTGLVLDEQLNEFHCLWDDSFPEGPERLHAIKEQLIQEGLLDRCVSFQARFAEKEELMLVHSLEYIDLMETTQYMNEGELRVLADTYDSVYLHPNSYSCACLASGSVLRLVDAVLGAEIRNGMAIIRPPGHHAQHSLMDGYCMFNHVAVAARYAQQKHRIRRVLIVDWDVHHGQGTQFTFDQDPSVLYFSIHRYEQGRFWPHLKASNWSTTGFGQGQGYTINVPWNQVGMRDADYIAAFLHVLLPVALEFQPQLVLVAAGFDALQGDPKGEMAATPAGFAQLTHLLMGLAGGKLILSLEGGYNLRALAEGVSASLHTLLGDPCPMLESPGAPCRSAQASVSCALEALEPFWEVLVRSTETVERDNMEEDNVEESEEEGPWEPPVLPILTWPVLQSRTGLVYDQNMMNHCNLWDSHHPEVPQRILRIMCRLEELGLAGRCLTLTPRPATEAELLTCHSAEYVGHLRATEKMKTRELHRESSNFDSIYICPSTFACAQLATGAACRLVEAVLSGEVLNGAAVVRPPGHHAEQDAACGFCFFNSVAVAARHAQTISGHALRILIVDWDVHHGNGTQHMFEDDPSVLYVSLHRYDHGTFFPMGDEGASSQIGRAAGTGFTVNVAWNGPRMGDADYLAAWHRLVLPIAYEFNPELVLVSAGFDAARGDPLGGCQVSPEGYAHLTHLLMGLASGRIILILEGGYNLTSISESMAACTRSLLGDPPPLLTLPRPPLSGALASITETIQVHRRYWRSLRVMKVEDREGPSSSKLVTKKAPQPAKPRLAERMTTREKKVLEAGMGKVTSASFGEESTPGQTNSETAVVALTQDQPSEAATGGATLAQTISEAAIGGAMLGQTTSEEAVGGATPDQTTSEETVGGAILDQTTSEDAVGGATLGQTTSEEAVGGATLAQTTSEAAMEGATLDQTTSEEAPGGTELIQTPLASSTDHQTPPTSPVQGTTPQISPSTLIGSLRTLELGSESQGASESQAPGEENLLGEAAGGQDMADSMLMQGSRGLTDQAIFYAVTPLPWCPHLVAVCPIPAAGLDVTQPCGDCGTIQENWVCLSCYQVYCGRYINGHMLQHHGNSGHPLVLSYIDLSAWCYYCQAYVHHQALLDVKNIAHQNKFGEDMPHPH

MCF7 [10] = assay: cells; settings: Homo sapiens
MDA-MB-231 = assay: Antiproliferative activity against human MDA-MB-231 cells
Jurkat = assay: Antiproliferative activity against human Jurkat cells; type: functional, cell-based
HeLa [11] = assay: Antiproliferative activity against human HeLa cells; type: functional, cell-based
KYSE-450 = assay: Antiproliferative activity against human KYSE-450 cells; type: functional, cell-based
MGC-803 = assay: Antitumor activity against human MGC-803 cells xenografted in mouse assessed as tumor growth inhibition at 20 mg/kg relative to control; type: functional; settings: read-out: TGI
Histone deacetylase 1 = Histone deacetylase 1 (Homo sapiens, UniProt Q13547); assay: Inhibition of HDAC1 (unknown origin)
A2780 = assay: Antiproliferative activity against human A2780 cells; type: functional, cell-based
[12] = target: Phosphatidylinositol 4,5-bisphosphate 3-kinase catalytic subunit alpha isoform (Homo sapiens, UniProt P42336); assay: Inhibition of PI3Kalpha (unknown origin)
[13] = target: Tyrosine-protein kinase JAK2 (Homo sapiens, UniProt O60674); assay: Inhibition of JAK2 (unknown origin)
SW-620 = assay: Antiproliferative activity against human SW620 cells incubated for 72 hrs by colorimetric method; type: functional, cell-based; settings: SW-620, 72 h
PC-3 = assay: Antiproliferative activity against human PC-3 cells incubated for 72 hrs by colorimetric method; type: functional, cell-based; settings: PC-3, 72 h
NCI-H23 = assay: Antiproliferative activity against human NCI-H23 cells incubated for 72 hrs by colorimetric method; type: functional, cell-based; settings: NCI-H23, 72 h
K562 = assay: Antiproliferative activity against human K562 cells assessed as cell growth inhibition by SRB assay; type: functional
A549 [14] = assay: Antiproliferative activity against human A549 cells assessed as cell growth inhibition by SRB assay; type: functional
MCF7 [15] = assay: Antiproliferative activity against human MCF7 cells assessed as cell growth inhibition by SRB assay; type: functional
HeLa [16] = assay: Antiproliferative activity against human HeLa cells assessed as cell growth inhibition by SRB assay; type: functional
HepG2 [17] = assay: Antiproliferative activity against human HepG2 cells measured after 24 hrs by MTT assay; type: functional, cell-based; settings: HepG2, 24 h
HCT-116 [18] = assay: Antiproliferative activity against human HCT-116 cells measured after 24 hrs by MTT assay; type: functional, cell-based; settings: HCT-116, 24 h
HeLa [19] = assay: Antiproliferative activity against human HeLa cells measured after 24 hrs by MTT assay; type: functional, cell-based

Phosphatidylinositol 4,5-bisphosphate 3-kinase catalytic subunit alpha isoform, sequence (P42336 whole entry, canonical isoform): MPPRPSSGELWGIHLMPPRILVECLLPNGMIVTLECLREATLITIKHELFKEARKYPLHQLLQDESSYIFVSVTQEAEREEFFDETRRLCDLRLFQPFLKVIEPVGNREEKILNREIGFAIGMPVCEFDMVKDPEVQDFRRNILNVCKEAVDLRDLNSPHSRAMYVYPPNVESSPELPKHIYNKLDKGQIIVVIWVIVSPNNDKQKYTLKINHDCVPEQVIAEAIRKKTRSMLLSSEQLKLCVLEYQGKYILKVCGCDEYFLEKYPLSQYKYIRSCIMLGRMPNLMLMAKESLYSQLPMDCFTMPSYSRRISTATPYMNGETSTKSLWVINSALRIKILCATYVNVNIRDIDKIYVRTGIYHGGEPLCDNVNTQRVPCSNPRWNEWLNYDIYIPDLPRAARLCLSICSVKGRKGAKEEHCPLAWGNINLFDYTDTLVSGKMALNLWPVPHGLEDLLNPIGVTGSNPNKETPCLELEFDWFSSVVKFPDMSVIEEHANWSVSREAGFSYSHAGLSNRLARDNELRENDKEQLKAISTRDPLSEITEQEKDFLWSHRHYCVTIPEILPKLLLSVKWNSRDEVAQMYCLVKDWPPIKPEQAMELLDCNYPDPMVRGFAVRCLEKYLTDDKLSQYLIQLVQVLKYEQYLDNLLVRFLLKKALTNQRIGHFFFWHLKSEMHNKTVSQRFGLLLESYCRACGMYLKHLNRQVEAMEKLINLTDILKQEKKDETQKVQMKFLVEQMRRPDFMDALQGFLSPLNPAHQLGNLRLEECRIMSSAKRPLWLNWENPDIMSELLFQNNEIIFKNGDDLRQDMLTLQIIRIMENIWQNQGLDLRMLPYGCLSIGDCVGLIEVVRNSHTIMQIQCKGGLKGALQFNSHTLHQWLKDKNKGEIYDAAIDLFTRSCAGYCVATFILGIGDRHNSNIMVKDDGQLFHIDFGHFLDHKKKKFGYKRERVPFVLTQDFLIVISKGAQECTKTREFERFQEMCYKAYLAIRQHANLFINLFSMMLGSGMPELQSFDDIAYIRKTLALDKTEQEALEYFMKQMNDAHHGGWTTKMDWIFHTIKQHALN
Histone deacetylase 1, sequence (Q13547 whole entry): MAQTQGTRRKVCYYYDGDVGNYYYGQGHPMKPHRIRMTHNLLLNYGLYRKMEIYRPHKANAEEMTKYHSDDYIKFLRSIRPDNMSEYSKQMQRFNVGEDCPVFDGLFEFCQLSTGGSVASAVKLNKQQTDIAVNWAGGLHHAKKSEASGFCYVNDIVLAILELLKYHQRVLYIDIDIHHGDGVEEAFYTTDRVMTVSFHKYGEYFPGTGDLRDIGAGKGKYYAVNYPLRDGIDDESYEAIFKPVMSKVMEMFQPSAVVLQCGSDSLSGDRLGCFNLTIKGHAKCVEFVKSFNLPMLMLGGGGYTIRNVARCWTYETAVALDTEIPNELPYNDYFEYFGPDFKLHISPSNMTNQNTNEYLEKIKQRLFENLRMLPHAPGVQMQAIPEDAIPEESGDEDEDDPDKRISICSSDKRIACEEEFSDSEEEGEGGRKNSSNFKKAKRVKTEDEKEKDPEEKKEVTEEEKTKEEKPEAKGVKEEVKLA
Tyrosine-protein kinase JAK2, sequence (O60674 whole entry): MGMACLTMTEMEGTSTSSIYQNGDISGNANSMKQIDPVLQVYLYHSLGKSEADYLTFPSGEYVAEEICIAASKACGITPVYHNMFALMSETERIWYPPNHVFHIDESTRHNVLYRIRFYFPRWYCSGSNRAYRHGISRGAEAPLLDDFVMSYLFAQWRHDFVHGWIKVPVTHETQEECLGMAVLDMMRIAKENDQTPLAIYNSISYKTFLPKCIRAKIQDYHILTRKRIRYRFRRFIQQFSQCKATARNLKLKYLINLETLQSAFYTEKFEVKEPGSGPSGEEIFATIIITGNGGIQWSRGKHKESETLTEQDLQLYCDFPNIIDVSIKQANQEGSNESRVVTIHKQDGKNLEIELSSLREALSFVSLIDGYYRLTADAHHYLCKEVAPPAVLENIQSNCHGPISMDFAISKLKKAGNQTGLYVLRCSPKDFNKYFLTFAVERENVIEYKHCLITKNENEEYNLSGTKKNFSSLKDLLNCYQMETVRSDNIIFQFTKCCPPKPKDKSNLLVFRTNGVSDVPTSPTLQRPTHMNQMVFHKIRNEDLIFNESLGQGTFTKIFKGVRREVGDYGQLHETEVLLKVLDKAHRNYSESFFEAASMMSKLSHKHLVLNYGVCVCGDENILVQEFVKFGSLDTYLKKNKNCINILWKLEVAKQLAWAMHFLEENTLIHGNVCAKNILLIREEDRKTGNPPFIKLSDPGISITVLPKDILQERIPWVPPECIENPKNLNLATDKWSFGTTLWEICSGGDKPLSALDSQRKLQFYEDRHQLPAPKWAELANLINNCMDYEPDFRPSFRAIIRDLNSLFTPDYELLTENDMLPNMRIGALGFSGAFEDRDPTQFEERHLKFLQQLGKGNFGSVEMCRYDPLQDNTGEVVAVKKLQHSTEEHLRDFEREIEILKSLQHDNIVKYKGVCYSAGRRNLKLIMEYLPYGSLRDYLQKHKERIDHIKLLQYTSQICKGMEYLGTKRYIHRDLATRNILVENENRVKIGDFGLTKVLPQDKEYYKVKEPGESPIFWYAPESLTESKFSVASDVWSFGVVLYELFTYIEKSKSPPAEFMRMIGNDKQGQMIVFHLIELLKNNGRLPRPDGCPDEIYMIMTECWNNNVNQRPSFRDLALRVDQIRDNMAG

COc1cc2c(Oc3ccc(NC(=O)C4(C(=O)Nc5ccc(F)cc5)CC4)cc3F)ccnc2cc1OCCCN1CCOCC1 [FORETINIB]
IC50 (HCT-116 [1]): 520 nM
IC50 (MCF7 [2]): 520 nM
IC50 (A549 [3]): 520 nM

COc1ccc2c(c1)[nH]c1c(C)nccc12 [HARMINE]
IC50 (A549 [4]): > 20000 nM
IC50 (HepG2 [5]): > 20000 nM
IC50 (HT-29): > 20000 nM
IC50 (HCT-116 [6]): > 20000 nM

O=C(CCCCCN1C(=O)c2ccccc2NC(=O)c2cc3ccccc3cc21)NO
IC50 (MV4-11): 93 nM
IC50 (Daudi): 93 nM
IC50 (A549 [7]): 93 nM
IC50 (MCF7 [8]): 93 nM
IC50 (Histone deacetylase 8): 183 nM

CC(C)(C)OC(=O)Nc1cccc(-c2cc(C(=O)NCCCCCCC(=O)NO)no2)c1
IC50 (Histone deacetylase): 5.8 nM

COc1cc(OCCCCCCC(=O)NO)ccc1C1c2ccc(O)cc2CCN1CC(C)(C)F (configuration not stated)
IC50 [9]: 26 nM
IC50 (MCF7 [10]): 1960 nM

Cc1cnc(Nc2ccc(OCCN3CCCC3)cc2)nc1Nc1cccc(S(=O)(=O)NC(C)(C)C)c1 [FEDRATINIB]
IC50 (A549 [4]): 560 nM
IC50 (HepG2 [5]): 560 nM
IC50 (MDA-MB-231): 560 nM
IC50 (Jurkat): 560 nM

COc1ccc2cc(C(=O)Oc3cccc(/C=C/C(=O)NO)c3)c(=O)oc2c1
IC50 (HepG2 [5]): 6910 nM
IC50 (HeLa [11]): 6910 nM
IC50 (HCT-116 [6]): 6910 nM
IC50 (MCF7 [10]): 6910 nM

CC/C(=C(\c1ccccc1)c1ccc(OCCN(C)C)cc1)c1ccccc1 [TAMOXIFEN]
IC50 (MCF7 [10]): 22500 nM

CNC(=O)c1ccccc1Nc1nc(Nc2ccc(N3CCOCC3)cc2OC)ncc1Cl
IC50 (KYSE-450): 719 nM
inhibition in vivo at 20 mg/kg (MGC-803): 22.3%
IC50 (HCT-116 [6]): 719 nM

COc1ncc(-c2ccc3ncc(C(=O)NCCCCCCC(=O)NO)cc3c2)cc1NS(=O)(=O)c1ccc(F)cc1F
IC50 (Histone deacetylase 1): 4.8 nM
IC50 (A2780): 2310 nM
IC50 [12]: 1.3 nM

Cc1cccc(Nc2nc(Nc3ccc(NC(=O)CCCCCCC(=O)NO)cc3)ncc2C)c1
IC50 (A549 [4]): 370 nM
IC50 (HepG2 [5]): 370 nM
IC50 (MDA-MB-231): 370 nM
IC50 (Jurkat): 370 nM
IC50 (Histone deacetylase 1): 2.2 nM
IC50 [13]: 0.6 nM

CCN(CC)c1ccc2cc(C(=O)Oc3cccc(/C=C/C(=O)NO)c3)c(=O)oc2c1
IC50 (HepG2 [5]): 7010 nM
IC50 (HeLa [11]): 7010 nM
IC50 (HCT-116 [6]): 7010 nM
IC50 (MCF7 [10]): 7010 nM

CN1c2ccc(NCC3CCN(c4ncc(C(=O)NO)cn4)CC3)cc2C(=O)N2CCc3c([nH]c4ccc(O)cc34)C21 (configuration not stated)
IC50 (A549 [4]): 230 nM
IC50 (MCF7 [10]): 230 nM

O=C(CCCCCN1C(=O)c2ccccc2NC(=O)c2ccccc21)NO
IC50 (MV4-11): 93 nM
IC50 (Daudi): 93 nM
IC50 (A549 [7]): 93 nM
IC50 (MCF7 [8]): 93 nM
IC50 (Histone deacetylase 8): 183 nM

COc1ncc(-c2ccc3nccc(C(=O)NCCCCC(=O)NO)c3c2)cc1NS(=O)(=O)c1cc(F)cc(F)c1
IC50 (Histone deacetylase 1): 4.8 nM
IC50 (A2780): 2150 nM
IC50 [12]: 1.3 nM

O=C(NO)c1csc(NS(=O)(=O)Nc2ccccc2)n1
IC50 (SW-620): 1450 nM
IC50 (PC-3): 1450 nM
IC50 (NCI-H23): 1450 nM

CN1c2ccc(NCc3ccc(/C=C/C(=O)NO)cc3)cc2C(=O)N2CCc3c([nH]c4ccc(O)cc34)C21 (configuration not stated)
IC50 (A549 [4]): 180 nM
IC50 (MCF7 [10]): 180 nM

COc1cccc(Nc2nc(Nc3ccc(NC(=O)CCCCCCC(=O)NO)cc3)ncc2C)c1
IC50 (A549 [4]): 140 nM
IC50 (HepG2 [5]): 140 nM
IC50 (MDA-MB-231): 140 nM
IC50 (Jurkat): 140 nM
IC50 (Histone deacetylase 1): 31.9 nM
IC50 [13]: 0.5 nM

COc1cc2c(Oc3ccc(NC(=O)C4CCN(c5cccc(F)c5)C4=O)cc3)ccnc2cc1OCCCCCCC(=O)NO (configuration not stated)
IC50 (HCT-116 [1]): 280 nM
IC50 (MCF7 [2]): 280 nM
IC50 (A549 [3]): 280 nM

Cc1ccc(NS(=O)(=O)Nc2nc(C(=O)NO)cs2)cc1
IC50 (Histone deacetylase): 36 nM
IC50 (SW-620): 1450 nM
IC50 (PC-3): 1450 nM
IC50 (NCI-H23): 1450 nM

COc1cccc2c1C(=O)c1c(O)c3c(c(O)c1C2=O)C[C@@](O)(C(=O)CO)C[C@@H]3O[C@H]1C[C@H](N)[C@H](O)[C@H](C)O1 [DOXORUBICIN]
GI50 (K562): < 10000 nM
GI50 (A549 [14]): < 10000 nM
GI50 (MCF7 [15]): < 10000 nM
GI50 (HeLa [16]): < 10000 nM
IC50 (HepG2 [17]): 4170 nM
IC50 (HCT-116 [18]): 4170 nM
IC50 (HeLa [19]): 4170 nM

COc1ncc(-c2ccc3nccc(C(=O)NCCCCCC(=O)NO)c3c2)cc1NS(=O)(=O)c1cc(F)cc(F)c1
IC50 (Histone deacetylase 1): 4.8 nM
IC50 (A2780): 2620 nM
IC50 [12]: 1.3 nM

O=C(NO)c1csc(NS(=O)(=O)Nc2ccc(Cl)cc2)n1
IC50 (Histone deacetylase): 36 nM
IC50 (SW-620): 1450 nM
IC50 (PC-3): 1450 nM
IC50 (NCI-H23): 1450 nM

O=C(CCCCCN1C(=O)c2ccccc2/C=C\c2ccccc21)NO
IC50 (MV4-11): 93 nM
IC50 (Daudi): 93 nM
IC50 (A549 [7]): 93 nM
IC50 (MCF7 [8]): 93 nM
IC50 (Histone deacetylase 8): 183 nM
